These results are taken from PubChem BioAssay AID1288 (Columbia University Molecular Screening Center, 2008).

Activity calls are given as the source filed them. The rule behind the calls is not given here.

The experiment in a line: E-selectin induction blockers, endothelial cells – imaging, retest plus dose response, cell count, confirmation (AID 1288).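 Note: 0% = stimulated vehicle wells and 100% = unstimulated vehicle wells.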 The note with it: human endothelial cells, TNFa-induced E-selectin, imaging; at 2 µM; active compounds read high.
Broadly, the inhibition is the relative decrease from the control value, in per cent. Regarding `Cc1cc(NC(=O)CSc2nnc(Cc3ccccc3)n2C)no1`, the inhibition was 1.71% (inactive).
In the case of `Clc1ccc(CNc2ccc3nnc(-c4ccccc4)n3n2)cc1` it was 0.04% (inactive); in that of `CN(C)CCNC(=O)/C(=C/c1ccc(-c2ccc(Cl)cc2)o1)NC(=O)c1ccccc1`, 0.09% (inactive); in that of `COc1cc(C(=O)OCCNC(=O)c2ccncc2)cc(OC)c1OC`, 9.29% (inactive).
Turning to `CCCC(CCC)C(=O)NNc1cc(=O)c2c(=O)n(C)c(=O)n(C)c2[nH]1`, the inhibition was 5.15% (inactive).
Under `c1ccc(-n2c(-c3ccncc3)nnc2N2CCOCC2)cc1` stands 5.7% (inactive).
Regarding `O=C1CC(N(Cc2cccs2)C(=O)Nc2ccccc2)C(=O)N1c1ccc(Cl)cc1` (stereo not drawn), the inhibition was -1.04% (inactive).
Turning to `CCCCCCOC(=O)/C=C/c1c(C)[nH]c(=O)[nH]c1=O`, the inhibition was 30.8% (inactive).
Under `Cc1ccc(N2CCN(/N=C/c3cccs3)CC2)cc1` stands 1.13% (inactive); under `O=C(NCc1nc(-c2ccccc2)no1)c1ccc2c(c1)OCO2`, 24.1% (inactive); under `O=C(Nc1ccccc1C(=O)N/N=C/c1ccco1)c1ccc(F)cc1`, 10.5% (inactive).
In the case of `CCc1ccc(CC2S/C(=C(\C#N)C(C)=O)NC2=O)cc1` (stereo not drawn) it was 5.01% (inactive); in that of `O=C(NCCN1C(=O)CSC1=O)c1ccccc1`, 1.16% (inactive); in that of `Cc1cc(N2CCCCC2)nc(NCc2ccccc2)n1`, 36.1% (inactive).
Under `O=C(COc1ccc(-c2nnco2)cc1)NCc1ccccc1Cl` stands 10.1% (inactive); under `Cc1cc(C)c(C#N)c(=N)o1`, -5.81% (inactive); under `CCC(=O)NC(c1ccc([N+](=O)[O-])cc1)c1c(O)ccc2ccccc12` (stereo not drawn), 0.15% (inactive).
For the compound `N=c1sccn1CC(=O)NCCc1ccc(Cl)cc1`, the inhibition was 3.43% (inactive).
Turning to `CCOC(=O)c1cc2c(ccn2C)n1CC(=O)N1CCC(Cc2ccccc2)CC1`, the inhibition is 4.26% (inactive).
Under `CN1CCCN(S(=O)(=O)c2ccc(Cl)c(Cl)c2)CC1` stands 0.45% (inactive); under `Cn1cccc1/C=C1\C(=O)NC(=O)N(CCC2=CCCCC2)C1=O`, 6.01% (inactive); under `COc1ccc(-c2nc3cnccn3c2NC(C)(C)CC(C)(C)C)cc1O`, 6.02% (inactive).
In the case of `CCC(C)NC(=O)C(NS(=O)(=O)c1cccc2nsnc12)c1ccccc1` (stereo not drawn) it was 9.11% (inactive); in that of `COc1cc(S(=O)(=O)N(Cc2ccccn2)Cc2ccco2)ccc1-n1cnnn1`, 2% (inactive); in that of `S=C(NCc1cccs1)Nc1cccc(Cl)c1Cl`, 8.76% (inactive).
Consider `O=C(Nc1ccccc1)N(CCc1ccncc1)C1CCCCC1`, for which the inhibition was 5.75% (inactive).
For `Cc1cc(NCCN2CCCCC2)n2c(nc3ccccc32)c1C#N`, the inhibition is 11.7% (inactive).
In the case of `COc1ccc(C(=O)NCC(C)C)c(OC)c1` it was 24.1% (inactive); in that of `COc1ccc(CCN(C)c2ccc(S(=O)(=O)N3CCCC3)cn2)cc1OC`, 28.4% (inactive).
In the case of `O=C(Nc1nc(-c2ccccc2)c(-c2ccccc2)s1)c1ccc(S(=O)(=O)N(CCCl)CCCl)cc1` it was -7.24% (inactive).
In the case of `COc1ccc(-n2c(C)cc(C(=O)COc3ccc(C)nc3[N+](=O)[O-])c2C)cc1` it was 31.4% (inactive); in that of `O=C1CC(Sc2nnc(-c3ccccc3O)o2)C(=O)N1c1ccccc1` (stereo not drawn), 9.02% (inactive); in that of `O=C(CN(C(=O)CCC(=O)Nc1ccccn1)c1ccc2c(c1)OCO2)NCc1ccco1`, 36.3% (inactive).
Regarding `O=c1ncn(-c2ccccc2F)c2ncccc12`, the inhibition was 1.5% (inactive).
Turning to `O=Cc1ccc(OCc2ccccn2)cc1`, the inhibition is 15.8% (inactive).
On to `Cc1ccc(NC(=O)CSc2nc3ccccc3c3nc(CCc4c(C)n[nH]c4C)nn23)cc1F`, for which the inhibition is 47.2% (inactive).
Consider `COc1ccc(OCC2CNC(=O)O2)cc1` (stereo not drawn), for which the inhibition was 0.97% (inactive).
On to `COc1ccc(/C(C)=N/OCC(=O)N2CC3(C)CC2CC(C)(C)C3)cc1` (stereo not drawn), for which the inhibition was 17.2% (inactive).
In the case of `COc1ccc(/C(O)=C2/C(=O)C(=O)N(Cc3cccnc3)C2c2ccncc2)cc1F` (stereo not drawn) it was 19.1% (inactive); in that of `CN1C(=O)S/C(=C\c2ccccc2OCc2ccc(C(=O)O)cc2)C1=O`, 15.9% (inactive).
For `CCOCc1nnc(NC(=O)CCc2ccccc2)s1`, the inhibition was 9.8% (inactive).
Under `CC(C)(C)OC(=O)NCC(=O)N1CCC(C(=O)O)CC1` stands -3.45% (inactive); under `COC(=O)c1cc2oc(C)cc2n1CC(=O)N1CCCc2ccccc21`, 9.68% (inactive); under `CCOc1cc(C(=O)NCc2nnc(SCC(=O)OC)n2C)cc(OCC)c1OCC`, -6.58% (inactive).
Under `COc1cc(/C=C2\SC(=S)N(CC(=O)Nc3ccc(O)cc3)C2=O)cc(OC)c1OC` stands -1.6% (inactive); under `Cc1c(NC(=O)CN2CC(C)OC(C)C2)c(=O)n(-c2ccccc2)n1C` (stereo not drawn), 35.8% (inactive).
For the compound `COc1ccc(NC(=O)c2cccnc2Cl)c(S(=O)(=O)N2CCOCC2)c1`, the inhibition was 6.27% (inactive).
Turning to `CC(C)C(=O)N(c1ccc(F)cc1)C1C=CS(=O)(=O)C1` (stereo not drawn), the inhibition was -2.25% (inactive).
With `Clc1ccc(Nc2nc3cccnc3s2)cc1`, the inhibition was 7.79% (inactive).
Under `CCc1cc[n+](CC(=O)Nc2ccc(Cl)cc2Cl)cc1` stands 5.98% (inactive).
Under `COc1ccc2cc(CN(CCO)C(=O)c3ccccc3F)c(=O)[nH]c2c1` stands 12.6% (inactive).
Turning to `COc1cccc(/C=C/C(=O)OCC(=O)Nc2ccc(Cl)c(S(=O)(=O)N(C)C)c2)c1`, the inhibition was 2.19% (inactive).
In the case of `Cc1cc([N+](=O)[O-])nn1CCCC(=O)Nc1sc2c(c1C(N)=O)CCC(C)C2` (stereo not drawn) it was 1.33% (inactive); in that of `CCCOc1ccc(NC(=O)C(=O)NCCCn2ccnc2)cc1`, 42.5% (inactive).
Take `COc1ccccc1OCCn1cc(C(=O)c2ccco2)c2ccccc21`: the inhibition was 12.3% (inactive).
Under `COc1ccc(-c2noc(CCC(N)=O)n2)cc1OC` stands 16.5% (inactive); under `O=C(NN=C1CCN(Cc2ccccc2)CC1)c1ccccc1`, 9.36% (inactive); under `CCCc1[nH]nc2c1C(c1ccc(O)c(OC)c1)C(C#N)=C(N)O2` (stereo not drawn), 16.6% (inactive).
In the case of `O=S(=O)(N1CCOCC1)N1CCN(c2ccccc2F)CC1` it was -1.16% (inactive); in that of `O=C(CCc1ccccc1)NCCC1=CCCCC1`, 6.52% (inactive).
Under `CN(C)S(=O)(=O)N1CCN(CC(=O)Nc2cc(Cl)ccc2Cl)CC1` stands -3.1% (inactive); under `C=CCc1cccc(/C=N/NC(=O)CCCNc2ccc(C)cc2)c1O`, 11.2% (inactive); under `O=C1CC(c2ccccc2)CC2=C1CN(C1CCCCC1)CN2` (stereo not drawn), 10.2% (inactive).
As for `O=C(c1cccc(F)c1)N1CCN(c2cc(N3CCCCC3)c(F)cc2[N+](=O)[O-])CC1`, the inhibition was 4.49% (inactive).
Regarding `[O-][n+]1onc2c1C(N1CCOCC1)CCC2N1CCOCC1` (stereo not drawn), the inhibition was 5.99% (inactive).
Under `CCOC(=O)C1CCCN(Cc2ccccc2F)C1` (stereo not drawn) stands 30.6% (inactive); under `CS(=O)(=O)c1ccc(Cl)c(NC(=O)c2ccc3ccccc3c2)c1`, 4.97% (inactive); under `COc1cc(C(=O)Nc2ccc3c(c2)C(=O)c2ccccc2C3=O)cc(OC)c1OC`, 12.8% (inactive).
Under `CCC(C)Nc1nc(OC(C(F)(F)F)C(F)(F)F)nc(OC(C(F)(F)F)C(F)(F)F)n1` (stereo not drawn) stands 9.28% (inactive); under `O=C(C1CCN(S(=O)(=O)c2cnc[nH]2)CC1)N1CCN(c2ncccn2)CC1`, 31.7% (inactive).
Regarding `C=CCN(CC=C)C(=O)Nc1cc(Cl)ccc1OC`, the inhibition is 15.5% (inactive).
Under `COc1cccc(CNc2ccc(F)c(Cl)c2)c1` stands 39.9% (inactive); under `O=C(Nc1ccc(-c2nc3cccnc3s2)cc1)c1ccc(Br)o1`, 5.96% (inactive).
`O=C(CSc1nnc(CNc2ccc(F)cc2)o1)N1CCCc2ccccc21`: the inhibition was 2.29% (inactive).
In the case of `O=C(Oc1nsnc1N1CCOCC1)N1CCOCC1` it was 2.57% (inactive); in that of `CCN(CC)S(=O)(=O)c1ccc(NC(=O)CSc2nnc(-c3ccc(F)cc3)o2)cc1`, 1.25% (inactive); in that of `CCOC(=O)c1sc2nc(CSc3nc4ccccc4n3CC)[nH]c(=O)c2c1C`, -2.72% (inactive).
In the case of `Fc1ccc(-c2n[nH]c(=S)n2/N=C/c2c[nH]c3ccccc23)cc1`, the inhibition was 27.9% (inactive).
As to `Cc1[nH]nc2c1C1(C(=O)N(Cc3ccc(Cl)cc3)c3ccccc31)C(C#N)=C(N)O2` (stereo not drawn), the inhibition was 10.5% (inactive).
Under `N#CC(C#N)=C/C(C#N)=C(/N)N1CCN(c2ccc(Cl)cc2)CC1` stands 6.82% (inactive); under `O=C(CCc1ccccc1)Nc1ncc2c(n1)CCCC2=O`, 14.5% (inactive).
In the case of `COc1cc(-c2noc(CCC(=O)Nc3cccnc3)n2)cc(OC)c1OC` it was 33.6% (inactive).
For `CC1CC1c1ccc(/C=C(\C#N)C(=O)Nc2ccc(Cl)cc2)o1` (stereo not drawn), the inhibition was 7.94% (inactive).
On to `CCOC(=O)N1CCN(C(=O)COc2cccc3c2CCN(Cc2cccc(C)c2)C3=O)CC1`, for which the inhibition was 8.76% (inactive).
As to `COc1ccc(C(=O)CN2C(=O)NC3(CCCc4ccccc43)C2=O)cc1OC` (stereo not drawn), the inhibition was 7.22% (inactive).
For `COC(=O)c1cc2ccsc2n1Cc1nc(-c2cccc(Cl)c2)oc1C`, the inhibition was -2.86% (inactive).
`CN(Cc1ccccc1)C(=S)NC(=O)C1CCCCC1`: the inhibition is 8.28% (inactive).
Under `Cc1cccc(N2CCN(c3cccc(C)c3)C2c2cccnc2)c1` stands 5.98% (inactive).
